Data from ChEMBL document CHEMBL1131707, “Methionyl adenylate analogues as inhibitors of methionyl-tRNA synthetase” (1999).
Values after ≈ are worked out from the molar mass of the structure shown.

What was measured:
Klebsiella pneumoniae = assay: Antibacterial activity of compound was determined against Klebsiella pneumoniae 2011E; format: functional
Pseudomonas aeruginosa = assay: Antibacterial activity of compound was determined against Pseudomonas aeruginosa 1912; format: functional
Salmonella typhimurium = assay: Antibacterial activity of compound was determined against Salmonella Typhimurium 14028; format: functional, Salmonella enterica subsp. enterica serovar Typhimurium; conditions: Salmonella enterica
Klebsiella aerogenes = assay: Antibacterial activity of compound was determined against Klebsiella aerogenes 1976E; format: functional
Escherichia coli = assay: Antibacterial activity of compound was determined against Escherichia coli JM109; format: functional
Staphylococcus aureus = assay: Antibacterial activity of compound was determined against Staphylococcus aureus 1538p; format: functional
[1] = system: Staphylococcus epidermidis; assay: Antibacterial activity of compound was determined against […] 887E; format: functional
Bacillus cereus = assay: Antibacterial activity of compound was determined against Bacillus cereus ATCC 27348; format: functional

Compound	MIC (Klebsiella pneumoniae) [µg/mL]	MIC (Pseudomonas aeruginosa) [µg/mL]	MIC (Salmonella typhimurium) [µg/mL]	MIC (Klebsiella aerogenes) [µg/mL]	MIC (Escherichia coli) [µg/mL]	MIC (Staphylococcus aureus) [µg/mL]	MIC [1] [µg/mL]	MIC (Bacillus cereus) [µg/mL]
CSCC[C@H](N)C(=O)NOC[C@H]1OC(n2cnc3c(N)ncnc32)[C@H](O)[C@@H]1O (stereo not given in full)	> 64	> 64	> 64	> 64	8 (≈ 19.3 µM)	> 64	> 64	> 64
CSCC[C@H](N)C(=O)NC[C@H]1OC(n2cnc3c(N)ncnc32)[C@H](O)[C@@H]1O (stereo not given in full)	> 64	> 64	> 64	> 64	1 (≈ 2.52 µM)	> 64	> 64	> 64
CSCC[C@H](N)C(=O)N(O)C[C@H]1OC(n2cnc3c(N)ncnc32)[C@H](O)[C@@H]1O (stereo not given in full)	> 64	> 64	> 64	> 64	0.5 (≈ 1.21 µM)	> 64	> 64	8 (≈ 19.3 µM)

Further lines, results first:

MIC (Klebsiella pneumoniae) [µg/mL]	MIC (Pseudomonas aeruginosa) [µg/mL]	MIC (Salmonella typhimurium) [µg/mL]	MIC (Klebsiella aerogenes) [µg/mL]	MIC (Escherichia coli) [µg/mL]	MIC (Staphylococcus aureus) [µg/mL]	MIC [1] [µg/mL]	MIC (Bacillus cereus) [µg/mL]	Compound
> 64	> 64	8 (≈ 48.7 µM)	4 (≈ 24.4 µM)	0.5 (≈ 3.04 µM)	> 64	> 64	> 64	CSCC[C@H](N)C(=O)NO
> 64	> 64	> 64	> 64	0.5 (≈ 1.25 µM)	> 64	> 64	32 (≈ 80.3 µM)	CSCC[C@H](N)C(=O)OC[C@H]1O[C@@H](n2cnc3c(N)ncnc32)[C@H](O)[C@@H]1O
